Experimental data from ChEMBL document CHEMBL3044762, “Design, Synthesis and Evaluation of Trisubstituted Thiazoles Targeting Plasmodium Falciparum Cysteine Proteases” (Med Chem Res, 2005).

Tests used:
Plasmodium falciparum [1] = test: Antimalarial activity against Plasmodium falciparum W2 after 72 hr by LDH assay; type: functional, organism-based; conditions: W2, 72 h
Falcipain 2 = biological target: T1, Falcipain 2 (Plasmodium falciparum, UniProt Q9N6S8); test: Inhibition of recombinant Plasmodium falciparum falcipain-2 using Z-Leu-Arg-AMC as substrate compound treated for 30 min before substrate addition by fluorescence assay
T1 sequence (Q9N6S8 whole entry): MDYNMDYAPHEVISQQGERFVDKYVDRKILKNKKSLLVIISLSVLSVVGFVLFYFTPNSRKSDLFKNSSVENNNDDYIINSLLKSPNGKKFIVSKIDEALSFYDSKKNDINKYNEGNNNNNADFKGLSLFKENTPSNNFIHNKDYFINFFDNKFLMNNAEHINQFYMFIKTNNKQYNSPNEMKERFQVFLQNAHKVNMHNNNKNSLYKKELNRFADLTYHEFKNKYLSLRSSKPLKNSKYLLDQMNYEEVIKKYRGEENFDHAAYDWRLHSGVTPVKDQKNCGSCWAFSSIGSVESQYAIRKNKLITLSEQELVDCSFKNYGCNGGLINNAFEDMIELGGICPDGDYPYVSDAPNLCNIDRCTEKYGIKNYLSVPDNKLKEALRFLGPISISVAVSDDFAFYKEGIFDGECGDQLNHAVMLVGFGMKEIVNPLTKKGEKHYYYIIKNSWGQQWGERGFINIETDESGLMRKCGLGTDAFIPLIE

Falcipain-3 = Falcipain-3 (Plasmodium falciparum, UniProt Q8IIL0); test: Inhibition of recombinant Plasmodium falciparum falcipain-3 using Z-Leu-Arg-AMC as substrate compound treated for 30 min before substrate addition by fluorescence assay
Sequence of Falcipain-3 (Q8IIL0 whole entry, looked up): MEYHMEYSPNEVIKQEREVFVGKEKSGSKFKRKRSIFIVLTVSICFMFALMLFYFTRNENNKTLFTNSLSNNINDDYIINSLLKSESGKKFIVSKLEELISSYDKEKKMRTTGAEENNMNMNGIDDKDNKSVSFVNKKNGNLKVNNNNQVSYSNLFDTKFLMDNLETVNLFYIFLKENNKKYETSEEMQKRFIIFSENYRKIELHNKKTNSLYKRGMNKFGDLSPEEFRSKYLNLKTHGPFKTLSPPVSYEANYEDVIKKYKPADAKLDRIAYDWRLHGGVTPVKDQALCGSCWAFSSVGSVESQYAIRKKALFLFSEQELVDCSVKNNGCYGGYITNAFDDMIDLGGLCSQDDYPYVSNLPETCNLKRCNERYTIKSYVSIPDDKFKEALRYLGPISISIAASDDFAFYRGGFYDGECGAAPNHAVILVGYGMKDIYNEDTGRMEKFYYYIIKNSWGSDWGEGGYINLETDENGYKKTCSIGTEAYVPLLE

Plasmodium falciparum [2] = test: Antimalarial activity against Plasmodium falciparum W2 […] after 72 hr by LDH assay; type: functional
Plasmodium falciparum [3] = test: Antimalarial activity against Plasmodium falciparum D6 at EC50 after 72 hr by LDH assay; type: functional; parameters: concentration or dose not given beside the values
Vero [4] = test: (§1) Cytotoxicity against Chlorocebus aethiops (African green monkey) Vero cells by Neutral Red assay; type: cell-based; conditions: chlorocebus sabaeus, vero
Leishmania donovani = test: Antileishmanial activity against Leishmania donovani promastigotes after 72 hr by alamar blue assay; type: functional, organism-based
Plasmodium falciparum [5] = test: Antimalarial activity against Plasmodium falciparum D6 after 72 hr by LDH assay; type: functional, organism-based; conditions: D6, 72 h
[6] = as §1; type: cell-based; conditions: chlorocebus sabaeus, Vero cells; read-out: TD50 (the source's name)
Vero [7] = test: Cytotoxicity against Chlorocebus aethiops (African green monkey) Vero cells at TD50 by Neutral Red assay; type: cell-based; conditions: chlorocebus sabaeus

| EC50 (Plasmodium falciparum [1]) [µM] | IC50 (Falcipain 2) [µM] | IC50 (Falcipain-3) [µM] | EC50 (Plasmodium falciparum [5]) [µM] | SMILES | inhibition (INH) (Plasmodium falciparum [2]) [%] | inhibition (INH) (Plasmodium falciparum [3]) [%] | TD50 (Vero [4]) | EC50 (Leishmania donovani) [µM] | CC50 [6] [µM] | Activity (Vero [7]) [%] |
| --- | --- | --- | --- | --- | --- | --- | --- | --- | --- | --- |
| > 20 | > 12.5 | > 50 |  | O=C(CCc1nc(CO)c(CCc2ccccc2)s1)CSCCCc1ccccc1 |  |  |  |  |  |  |
| > 90.7 |  |  | > 90.7 | Nc1nc(CCc2ccccc2)c(CCCO)s1 | 26 | 37 | Non-toxic | > 152 |  |  |
| > 49.5 | > 33 | > 50 | > 49.5 | NC(=O)CCc1sc(CCC(=O)CSCCCc2ccccc2)nc1CCc1ccccc1 | 43 | 42 |  | 41.6 | > 49.5 | 38 |
|  |  |  |  | C[C@@H]1[C@H](O)[C@@H](C)/C=C/C=C/C=C/C=C/C=C/C=C/C=C/[C@H](O[C@@H]2O[C@H](C)[C@@H](O)[C@H](N)[C@@H]2O)C[C@@H]2O[C@](O)(C[C@@H](O)C[C@@H](O)[C@H](O)CC[C@@H](O)C[C@@H](O)CC(=O)O[C@H]1C)C[C@H](O)[C@H]2C(=O)O [AMPHOTERICIN B] |  |  |  | 0.2 |  |  |
| 16.8 | > 33 | > 50 | 32.4 | CC(=O)NCCCc1sc(CCC(=O)CSCCCc2ccccc2)nc1CCc1ccccc1 |  |  | Non-toxic | 39.3 |  |  |
| 20.2 |  |  | 28.3 | CCOC(=O)CCc1sc(NC(=O)CSCCCc2ccccc2)nc1/C=C/c1ccccc1 |  |  | Non-toxic | 50.5 |  |  |
| > 51.1 | 39.1 | > 50 | > 51.1 | O=CCCc1sc(CCC(=O)CSCCCc2ccccc2)nc1CCc1ccccc1 | 26 | 45 | Non-toxic | 8.2 |  |  |
|  |  |  |  | N=C(N)c1ccc(OCCCCCOc2ccc(C(=N)N)cc2)cc1 [PENTAMIDINE] |  |  |  | 5 |  |  |
| 24.9 | > 33 | > 50 | 30.5 | CC(=O)OCc1nc(CCC(=O)CSCCCc2ccccc2)sc1CCc1ccccc1 |  |  | Non-toxic | 29.1 |  |  |
| 19.1 | > 12.5 | > 50 | 20.3 | O=C(CCc1nc(CCc2ccccc2)c(CCCO)s1)CSCCCc1ccccc1 |  |  |  | 16.3 | 40.6 |  |
| 13.8 | < 6.6 | 29.4 | 35.4 | O=C(/C=C/c1nc(CCc2ccccc2)c(CCCO)s1)CSCCCc1ccccc1 |  |  |  | 4.5 | > 51.1 |  |

| SMILES | EC50 (Plasmodium falciparum [1]) [µM] | IC50 (Falcipain 2) [µM] | IC50 (Falcipain-3) [µM] | EC50 (Plasmodium falciparum [5]) [µM] | inhibition (INH) (Plasmodium falciparum [2]) [%] | inhibition (INH) (Plasmodium falciparum [3]) [%] | TD50 (Vero [4]) | EC50 (Leishmania donovani) [µM] | CC50 [6] [µM] | Activity (Vero [7]) [%] |
| --- | --- | --- | --- | --- | --- | --- | --- | --- | --- | --- |
| NC(=O)CCc1sc(NC(=O)CSCCCc2ccccc2)nc1/C=C/c1ccccc1 | > 51.1 | 15.3 | 55.2 | > 51.1 | 26 | 45 | Non-toxic | 47.2 |  |  |
| CCN(CC)CCCC(C)Nc1ccnc2cc(Cl)ccc12 (stereo not drawn) [CHLOROQUINE] | 0.359 |  |  | 0.059 |  |  |  |  |  |  |
| C[C@@H]1CC[C@H]2[C@@H](C)C(=O)O[C@@H]3O[C@@]4(C)CC[C@@H]1[C@]32OO4 [ARTEMISININ] | 0.023 |  |  | 0.025 |  |  |  |  |  |  |
